Among the data in ChEMBL document CHEMBL1681764, “Isolation, structure identification and SAR studies on thiosugar sulfonium salts, neosalaprinol and neoponkoranol, as potent α-glucosidase inhibitors” (Bioorg Med Chem, 2011) are IC50 and inhibition values, retold here.

Structures are written as SMILES.

Test [1] deals with T1, Sucrase-isomaltase, intestinal (Rattus norvegicus, UniProt P23739). As to the kind of experiment: Inhibition of rat intestinal sucrase.
The target of test [2] is T1, Sucrase-isomaltase, intestinal. As to the kind of experiment: Inhibition of rat intestinal isomaltase.
In test [3] the target is Sucrase-isomaltase, intestinal (Rattus norvegicus) (UniProt P23739). As to the kind of experiment: Inhibition of rat intestinal sucrase at >384 uM.
Chain of Sucrase-isomaltase, intestinal (Rattus norvegicus) (P23739 1-1013 limits assumed): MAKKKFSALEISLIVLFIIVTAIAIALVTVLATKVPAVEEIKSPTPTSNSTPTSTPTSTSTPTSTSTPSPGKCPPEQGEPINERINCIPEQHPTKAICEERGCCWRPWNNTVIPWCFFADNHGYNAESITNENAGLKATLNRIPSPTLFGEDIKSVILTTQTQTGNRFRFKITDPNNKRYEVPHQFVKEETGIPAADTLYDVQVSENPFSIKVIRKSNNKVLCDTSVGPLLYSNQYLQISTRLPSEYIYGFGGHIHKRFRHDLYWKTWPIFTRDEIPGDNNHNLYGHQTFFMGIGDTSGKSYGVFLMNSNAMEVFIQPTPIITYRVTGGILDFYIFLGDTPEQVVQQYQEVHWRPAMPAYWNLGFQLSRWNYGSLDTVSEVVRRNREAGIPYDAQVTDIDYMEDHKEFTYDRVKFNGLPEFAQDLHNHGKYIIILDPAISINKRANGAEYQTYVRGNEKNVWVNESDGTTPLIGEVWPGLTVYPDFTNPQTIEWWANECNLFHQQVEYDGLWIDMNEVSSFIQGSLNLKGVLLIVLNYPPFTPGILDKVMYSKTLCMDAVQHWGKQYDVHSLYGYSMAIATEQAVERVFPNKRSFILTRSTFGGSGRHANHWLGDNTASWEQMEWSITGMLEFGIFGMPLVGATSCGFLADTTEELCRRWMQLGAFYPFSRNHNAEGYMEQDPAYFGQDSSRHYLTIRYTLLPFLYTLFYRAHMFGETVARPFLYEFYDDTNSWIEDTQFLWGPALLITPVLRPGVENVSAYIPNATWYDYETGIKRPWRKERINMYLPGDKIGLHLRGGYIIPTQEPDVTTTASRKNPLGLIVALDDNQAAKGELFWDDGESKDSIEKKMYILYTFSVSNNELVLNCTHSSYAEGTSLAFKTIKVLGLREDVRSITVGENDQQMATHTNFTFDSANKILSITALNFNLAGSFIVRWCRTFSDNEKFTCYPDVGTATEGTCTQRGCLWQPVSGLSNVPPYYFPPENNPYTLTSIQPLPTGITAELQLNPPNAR
Chain of Sucrase-isomaltase, intestinal (Rattus norvegicus) (P23739 1014-1841 limits assumed): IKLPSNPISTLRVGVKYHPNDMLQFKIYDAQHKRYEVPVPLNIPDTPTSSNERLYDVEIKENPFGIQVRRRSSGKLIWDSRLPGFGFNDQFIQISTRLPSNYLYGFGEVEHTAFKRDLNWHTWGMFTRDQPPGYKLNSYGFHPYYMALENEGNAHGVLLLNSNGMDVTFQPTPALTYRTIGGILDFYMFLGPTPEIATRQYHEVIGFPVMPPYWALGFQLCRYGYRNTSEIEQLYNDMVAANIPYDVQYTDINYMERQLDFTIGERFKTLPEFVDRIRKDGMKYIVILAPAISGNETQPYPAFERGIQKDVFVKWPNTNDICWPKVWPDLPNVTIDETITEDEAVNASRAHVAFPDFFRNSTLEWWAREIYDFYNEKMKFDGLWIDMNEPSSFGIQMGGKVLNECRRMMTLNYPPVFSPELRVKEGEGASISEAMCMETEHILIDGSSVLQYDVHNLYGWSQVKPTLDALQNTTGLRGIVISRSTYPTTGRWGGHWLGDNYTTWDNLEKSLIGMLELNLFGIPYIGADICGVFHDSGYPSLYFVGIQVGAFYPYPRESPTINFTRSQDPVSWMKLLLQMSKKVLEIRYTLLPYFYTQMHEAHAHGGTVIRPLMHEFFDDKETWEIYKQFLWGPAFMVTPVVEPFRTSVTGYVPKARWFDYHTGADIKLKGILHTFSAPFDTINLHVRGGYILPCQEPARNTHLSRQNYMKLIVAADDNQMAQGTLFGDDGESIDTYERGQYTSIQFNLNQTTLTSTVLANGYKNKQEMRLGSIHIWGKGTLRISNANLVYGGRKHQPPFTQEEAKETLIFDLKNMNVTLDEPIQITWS
Test [4] addresses Lysosomal alpha-glucosidase (Rattus norvegicus) (UniProt Q6P7A9). In words: Inhibition of rat intestinal maltase at >384 uM.

T1 sequence (P23739 1-1013 limits assumed): as the sequence (P23739 1-1013 limits assumed) above
T1 sequence (P23739 1014-1841 limits assumed): as the sequence (P23739 1014-1841 limits assumed) above
Chain of Lysosomal alpha-glucosidase (Rattus norvegicus) (Q6P7A9 whole entry): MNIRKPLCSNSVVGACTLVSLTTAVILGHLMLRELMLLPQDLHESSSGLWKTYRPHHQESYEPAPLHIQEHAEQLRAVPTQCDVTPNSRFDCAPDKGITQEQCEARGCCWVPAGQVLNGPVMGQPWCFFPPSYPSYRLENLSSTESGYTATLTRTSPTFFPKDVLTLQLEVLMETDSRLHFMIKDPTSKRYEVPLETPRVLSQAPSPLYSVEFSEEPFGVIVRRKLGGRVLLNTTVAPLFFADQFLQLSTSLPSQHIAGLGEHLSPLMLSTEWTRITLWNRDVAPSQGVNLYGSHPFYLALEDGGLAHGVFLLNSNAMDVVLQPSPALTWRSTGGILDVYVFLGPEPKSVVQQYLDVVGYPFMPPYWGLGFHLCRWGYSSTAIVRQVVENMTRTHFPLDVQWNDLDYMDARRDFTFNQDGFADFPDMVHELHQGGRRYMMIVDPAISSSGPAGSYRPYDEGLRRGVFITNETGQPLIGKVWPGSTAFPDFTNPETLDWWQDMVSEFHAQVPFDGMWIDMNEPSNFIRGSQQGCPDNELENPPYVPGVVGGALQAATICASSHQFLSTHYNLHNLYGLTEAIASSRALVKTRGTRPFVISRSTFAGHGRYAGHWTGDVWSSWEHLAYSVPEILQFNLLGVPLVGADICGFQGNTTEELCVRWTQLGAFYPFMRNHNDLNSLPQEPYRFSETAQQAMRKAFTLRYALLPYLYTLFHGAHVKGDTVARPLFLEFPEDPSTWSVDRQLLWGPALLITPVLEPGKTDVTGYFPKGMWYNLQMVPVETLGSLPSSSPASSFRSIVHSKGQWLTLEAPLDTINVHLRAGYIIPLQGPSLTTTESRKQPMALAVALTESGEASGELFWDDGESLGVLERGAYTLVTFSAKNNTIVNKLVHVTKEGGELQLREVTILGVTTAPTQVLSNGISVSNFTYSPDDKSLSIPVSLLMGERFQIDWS

One may read the IC50 as the concentration at which inhibition is half-maximal. Higher therefore signals lower potency. As for `OC[C@@H](O)[C@@H](O)[C@H](O)[C@H](O)C[S@+]1C[C@@H](O)[C@H](O)[C@H]1CO`, the IC50 in test [1] was 2900 nM; in test [2], 1000 nM.
The matching figures for `O=S(=O)([O-])OC[C@@H](O)C[S@+]1C[C@@H](O)[C@H](O)[C@H]1CO`: > 329000 nM and > 329000 nM.
Broadly, the inhibition is the drop in the measured response relative to a control, in per cent. Lower therefore signals little suppression. As to `OC[C@@H](O)C[S@+]1C[C@@H](O)[C@H](O)[C@H]1CO`, the inhibition in test [3] came to 34.5%. Moreover, the half-maximal inhibitory concentration (IC50) in test [1] is > 384000 nM; in test [2], 52900 nM.
Turning to `OC[C@@H]1[C@@H](O)[C@H](O)C[S@@+]1C[C@@H](O)[C@H](O)[C@H](O)[C@@H](O)CO`, the concentration for half-maximal inhibition (IC50) was determined as 300 nM in test [1] and 1000 nM in test [2].
For the compound `O=S(=O)([O-])O[C@@H]([C@H](O)[C@H](O)[C@@H](O)CO)[C@H](O)C[S+]1C[C@@H](O)[C@H](O)[C@H]1CO` (stereo partly drawn) [KOTALANOL], the IC50 came to 750 nM in test [1] and 5700 nM in test [2].
The matching figures for `OC[C@@H]1[C@@H](O)[C@H](O)C[S@@+]1C[C@@H](O)[C@@H](O)[C@H](O)[C@H](O)[C@@H](O)CO` [NEOKOTALANOL]: 4500 nM and 1800 nM.
With `OC[C@@H]1[C@@H](O)[C@H](O)C[S@@+]1C[C@@H](O)[C@@H](O)[C@H](O)[C@@H](O)CO` [NEOPONKORANOL], the figures for the IC50 in test [1] and in test [2] were 1000 nM and 1400 nM, respectively.
The matching figures for `[O-][C@@H](CO)[C@H](O)C[S@+]1C[C@@H](O)[C@H](O)[C@H]1CO` [NEOSALACINOL]: 1300 nM and 300 nM.
For `OC[C@H](O)C[S@+]1C[C@@H](O)[C@H](O)[C@H]1CO` [NEOSALAPRINOL], the values for the IC50 in test [1] and in test [2] were 90000 nM and 6500 nM, respectively. In test [4], this compound registered an inhibition of 35%.
As to `O=S(=O)([O-])O[C@@H]([C@H](O)[C@@H](O)CO)[C@H](O)C[S@+]1C[C@@H](O)[C@H](O)[C@H]1CO` [PONKORANOL], the IC50 in test [1] was 290 nM; in test [2], 2600 nM.
For `O=S(=O)([O-])O[C@@H](CO)[C@H](O)C[S@+]1C[C@@H](O)[C@H](O)[C@H]1CO` [SALACINOL] the same measures were 1600 nM and 1300 nM.
For `O=S(=O)([O-])OC[C@H](O)C[S@+]1C[C@@H](O)[C@H](O)[C@H]1CO` [SALAPRINOL] the same measures were > 329000 nM and 15000 nM.
For `OCC(CO)N[C@H]1C[C@](O)(CO)[C@@H](O)[C@H](O)[C@H]1O` [VOGLIBOSE] the same measures were 200 nM and 2100 nM.
